Results as given in patent publication EP2276347B1, “TOLTRAZURIL WITH IMPROVED DISSOLUTION PROPERTIES” (KRKA, tovarna zdravil, d.d., Novo mesto, priority 2008, dated 2009).

Experiment: Specific surface area by nitrogen adsorption gas sorption (BET method)
Format: physicochemical
Settings: toltrazuril particles, outgased in vacuum at room temperature
Description: Specific surface area was measured by gas sorption system based on nitrogen adsorption, using Brunauer, Emmett and Teller (BET) method. Corresponding amount of sample was outgased in a vacuum at room temperature. After degasification the tube was weighed with sample and the analysis was proceeded.
With `Cc1cc(-n2c(=O)[nH]c(=O)n(C)c2=O)ccc1Oc1ccc(SC(F)(F)F)cc1` [Example 1, toltrazuril] the Specific surface area was 13.8 m^2/g. Work on `Cc1cc(-n2c(=O)[nH]c(=O)n(C)c2=O)ccc1Oc1ccc(SC(F)(F)F)cc1` [Example 2, toltrazuril] yielded a Specific surface area of 15 m^2/g. `Cc1cc(-n2c(=O)[nH]c(=O)n(C)c2=O)ccc1Oc1ccc(SC(F)(F)F)cc1` [Example 3, toltrazuril] showed a Specific surface area of 13.8 m^2/g. For `Cc1cc(-n2c(=O)[nH]c(=O)n(C)c2=O)ccc1Oc1ccc(SC(F)(F)F)cc1` [Example 4, toltrazuril], the Specific surface area was 15.2 m^2/g. For `Cc1cc(-n2c(=O)[nH]c(=O)n(C)c2=O)ccc1Oc1ccc(SC(F)(F)F)cc1` [Example 5, toltrazuril], the Specific surface area was 19.5 m^2/g. Compound `Cc1cc(-n2c(=O)[nH]c(=O)n(C)c2=O)ccc1Oc1ccc(SC(F)(F)F)cc1` [Example 6, toltrazuril] has a Specific surface area of 18.8 m^2/g. Compound `Cc1cc(-n2c(=O)[nH]c(=O)n(C)c2=O)ccc1Oc1ccc(SC(F)(F)F)cc1` [micronized toltrazuril, toltrazuril] has a Specific surface area of 14.1 m^2/g.
